From patent US20050143450A1, “Alkyl PCDF as a treatment for prostate cancer” (priority 2002, published 2005)

How the values were obtained:
[1] = system: ethoxyresorufin O-deethylase (EROD) activity in PC3 cells; assay: Induction of EROD activity in PC3 cells; type: cell-based; conditions: 24-96 hr
Protocol: An androgen responsive prostate cancer cell line 22Rv1 and an androgen nonresponsive prostate cancer cell line PC3 were treated with TCDD and ethoxyresorufin O-deethylase (EROD) activity was measured.

hAR = molecular target: T1, hAR (Homo sapiens, UniProt P10275); assay: Hormone-induced transactivation in ZR-75 cells cotransfected with pPB and hAR; type: cell-based; conditions: cotreated with hormone plus TCDD
T1 construct: expressed in transfected cells; host or cells: ZR-75
T1 sequence (P10275 1-920): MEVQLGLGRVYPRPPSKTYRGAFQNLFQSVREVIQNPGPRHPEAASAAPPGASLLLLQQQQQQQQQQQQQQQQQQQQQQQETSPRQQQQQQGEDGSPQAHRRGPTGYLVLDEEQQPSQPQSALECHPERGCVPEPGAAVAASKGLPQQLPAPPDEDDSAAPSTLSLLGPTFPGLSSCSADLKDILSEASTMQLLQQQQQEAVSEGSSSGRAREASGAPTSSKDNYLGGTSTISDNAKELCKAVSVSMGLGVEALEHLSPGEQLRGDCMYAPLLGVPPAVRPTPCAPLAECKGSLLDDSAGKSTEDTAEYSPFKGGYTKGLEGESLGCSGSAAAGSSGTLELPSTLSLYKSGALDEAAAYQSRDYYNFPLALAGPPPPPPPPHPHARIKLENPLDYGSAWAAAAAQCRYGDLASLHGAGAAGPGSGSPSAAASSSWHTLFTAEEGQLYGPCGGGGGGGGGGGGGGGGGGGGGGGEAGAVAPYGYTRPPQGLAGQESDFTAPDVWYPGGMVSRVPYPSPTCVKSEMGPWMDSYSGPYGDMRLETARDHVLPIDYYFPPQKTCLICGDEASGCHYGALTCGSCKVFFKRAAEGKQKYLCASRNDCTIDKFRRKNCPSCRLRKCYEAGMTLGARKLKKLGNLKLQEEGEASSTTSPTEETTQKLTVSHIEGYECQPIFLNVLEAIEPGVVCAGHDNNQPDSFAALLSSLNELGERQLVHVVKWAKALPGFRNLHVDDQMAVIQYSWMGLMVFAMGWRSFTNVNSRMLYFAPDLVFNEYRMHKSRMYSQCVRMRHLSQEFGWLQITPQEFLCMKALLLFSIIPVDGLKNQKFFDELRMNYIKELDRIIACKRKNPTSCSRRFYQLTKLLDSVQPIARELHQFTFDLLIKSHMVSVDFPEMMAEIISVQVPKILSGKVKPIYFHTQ
Protocol: After 24 h, cells were transfected using Lipofectamine and Plus reagents (Invitrogen) according to manufacturer's instructions. LNCaP and ZR-75 cells were transfected with 500 ng/well of either reporter plasmid, and 250 ng/well of pcDNA3.1-β-gal (Invitrogen) as the internal control. In addition, ZR-75 cells were transfected with 500 ng hAR. Twenty-four hours after treatment, cells were harvested by scraping with 200 μL/well of reporter lysis buffer. Lysates were centrifuged at 40,000 g and luciferase and β-galactosidase activity was assayed with 30 μL of the supernatant extract per sample using a Lumicount luminometer (PerkinElmer, Boston, Mass.). Luciferase activity was normalized to β-galactosidase activity for each transfection well.

Clc1cc2c(cc1Cl)Oc1cc(Cl)c(Cl)cc1O2 [TCDD, 2,3,7,8-tetrachloro-p-dioxin]
EROD activity induction ([1]; 1 nM): did not induce activity
EROD activity induction ([1]; 10 nM, maximal after 96 hr): induced a response
effect on DHT-induced activity (hAR): not
effect on E2-induced activity (hAR): inhibited
